Consider two molecules from PMC6272134, “Bioavailability Enhancement of Paclitaxel via a Novel Oral Drug Delivery System: Paclitaxel-Loaded Glycyrrhizic Acid Micelles” (Molecules, 2015).

For one series, the system named is CYP1A1. Also on record: method as in PMID 12584850. Conditions: rat liver microsomes; cited from earlier work.
A further series has as its system cell membranes. Also on record: method as in PMID 24870200. Conditions: cited from earlier work.
On the set-up of series [1]: method as in PMID 19929808. The conditions noted are these: cited from earlier work.
The subject of another series is CYP2E1. Also on record: method as in PMID 12584850. Conditions: rat liver microsomes; cited from earlier work.
A further series concerns CYP3A. Also on record: method as in PMID 12584850. Conditions: rat liver microsomes; cited from earlier work. On the technique in general: Liver microsomes are vesicles of endoplasmic reticulum, rich in cytochrome P450 enzymes.
A further series concerns P-gp. Details: method as in PMID 16904803. Conditions: in vitro study; cited from earlier work.
On the set-up of series [2]: method as in PMID 7939764. The conditions noted are these: cited from earlier work.
Details of series [3]: method as in PMID 11879753. Conditions: cited from earlier work.
Series [4] is described as follows: Phase-solubility test of PTX in GA / ethanol-water solutions. In kind it is physicochemical. On the procedure: The phase-solubility test was performed with a previously reported method. An excess quantity of PTX was taken into clean and dry vials containing 1 mL of various concentrations of GA solutions ([…]). […] Ultimately, the samples were filtered through 0.45 μm filters and the concentrations of PTX were detected by high performance liquid chromatography (HPLC; LC-20A, Shimadzu, Japan) (see Section 3.3.6.). All tests were repeated at least three times.

≈ marks a conversion by molar mass, not a printed value. Like-named read-outs stand apart in the source and are kept apart here.

As to `CC1(C)[C@@H](O[C@H]2O[C@H](C(=O)O)[C@@H](O)[C@H](O)[C@H]2O[C@@H]2O[C@H](C(=O)O)[C@@H](O)[C@H](O)[C@H]2O)CC[C@]2(C)[C@H]3C(=O)C=C4[C@@H]5C[C@@](C)(C(=O)O)CC[C@]5(C)CC[C@@]4(C)[C@]3(C)CC[C@@H]12` [GA, Glycyrrhizic acid], in the series on CYP1A1, the “inhibitor of CYP1A1” value is “inhibitor”. For the same molecule, the “increase of the permeability of cell membranes” value with cell membranes is “about 60%”. Besides, the critical micelle concentration in series [1] was 10^−3 M. The “inhibitor of CYP2E1” value with CYP2E1 is given as “inhibitor”. The “inhibitor of CYP3A” value in the series with CYP3A is “inhibitor”. Further, the “inhibition of the function of P-gp” value in the series with P-gp is on record as “inhibited the function of P-gp”.

Regarding `CC(=O)O[C@H]1C(=O)[C@@]2(C)[C@H]([C@H](OC(=O)c3ccccc3)[C@]3(O)C[C@H](OC(=O)[C@H](O)[C@@H](NC(=O)c4ccccc4)c4ccccc4)C(C)=C1C3(C)C)[C@]1(OC(C)=O)CO[C@@H]1C[C@@H]2O` [PTX, Paclitaxel], in series [2], the oral bioavailability is on record as less than 2%. Also, the aqueous solubility in series [3] is less than 1 µg/mL. The solubility at 48 h is 124 µg/mL in series [4] (10 mM GA solution in water, aqueous with cosolvent or surfactant or cyclodextrin, thermodynamic from solid, water, in the presence of 10 mM GA, 25 °C, read-out: solubility of PTX); 823 ± 14.4 µg/mL (≈ 964 µM) in series [4] (7.5% ethanol in water with 10 mM GA, 25 °C, aqueous with cosolvent or surfactant or cyclodextrin, thermodynamic from solid, optimal ethanol percentage (7.5%) with GA (10 mM), read-out: PTX solubility); not above 30 µg/mL in [4] (ethanol-water mixtures without GA, 0%, 5%, 7.5%, 10% and 25% ethanol in water, without GA, read-out: solubility of PTX in different percentages of ethanol); approximately 0.67 µg/mL (≈ 0.785 µM) in series [4] (water, absence of GA, 25 °C, read-out: solubility of PTX in water). In [4] (7.5% ethanol with GA vs solubility of PTX in water), the solubility increase result is listed as “more than 1,000 fold”.

One may read the aqueous solubility as how much of the substance goes into solution per volume. For orientation: solubility means how much of the substance goes into solution per volume.
